Measured values from US20110034510A1, “ENANTIOMER-ENRICHED ALPHA-,OMEGA-AMINO ALCOHOL DERIVATIVES, THEIR PRODUCTION AND USE AS INSECT- AND MITE-REPELLING AGENTS” (SALTIGO GMBH, priority 2006, published 2011).

Columns and labels:
[1] = system: Aedes aegypti; test: Repellent test on a guinea pig (Aedes aegypti); format: in vivo; details: shaved guinea pig back (50 cm^2) treated with 0.4 ml of solution, 3 parts by weight active ingredient in 100 parts by volume ethanol; bites observed 10 minutes, repeated hourly, maximum 9 hours
Description: A) Repellent Test on a Guinea Pig
Test Animal: Aedes aegypti (Imagines)
3 parts by weight of active ingredient are taken up in 100 parts by volume of solvent
A guinea pig whose back has been shaved in an area of 50 cm^2 is accommodated in a box such that only the shaved area is accessible to the mosquitoes.
It is observed for 10 minutes how many mosquitoes bite the guinea pig. Subsequently, it is removed and the test is repeated after 1 hour. The experiment is performed for a maximum of 9 hours or until the effect ceases.

[2] = system: mosquitoes; test: Repellent test against mosquitoes on the human lower arm; format: in vivo; details: compared to the standard racemic mixture; 150 μl test product on 90 cm^2 of human lower arm; 3-minute exposure every hour for up to 8 hours
Description: B) Repellent Effectiveness of Formulations for Use Against Mosquitoes on the Human Arm: […]
The insects, as an actively biting population (approx. 1000 mosquitoes of both genders), are kept in cages (length 90 cm, width 30 cm, height 40 cm, side walls made of gauze) which have two light fabric gates on the front side. The insects have been fed exclusively with sugared water (10% Dextropur). The age of the insects is at least 7 days; the number of insects is made up twice per week by 3-day old fully grown insects.
The low electrical illumination of the cage is active from 6 am to 6 pm, with light from 6 pm to 6 am. The temperature is 25-27° C.; the relative air humidity is 50-70%.
The lower arms of the test subjects are washed with unperfumed soap, rinsed with water, then rinsed with a solution of 70% ethanol and 30% water, and dried with a towel.
90 cm^2 of each lower arm of a test subject is rubbed uniformly with 150 μl (or 150 mg) of the test product. As soon as the formulation is dry (after approx. 5 minutes), a sleeve with an opening of 3.1-8 cm (25 cm^2) is bound around the arm such that the opening is completely over the treated surface. The corners of the opening of the sleeve have likewise been rubbed with the test material (2000) in a width of 1 cm in order to prevent bites at the corners. The area above the sleeve has been protected with a towel through which the mosquitoes cannot penetrate. Hands are protected with latex gloves.
Both arms are introduced into the cage through the fabric gate, and the number of bites (and landings, if necessary) per arm is noted within a 3-minute test period. The test is repeated every hour for up to 8 hours, or ended beforehand if the effect ceases (3 or more bites within 3 minutes or during 2 successive test sequences). Each test consists of three to 5 test subjects.

| Structure (SMILES) | Protection time [1] [h] | Increase in the protection time* in % [2] [%] |
| --- | --- | --- |
| CC[C@@H](C)OC(=O)N1CCCC[C@@H]1CCO (single isomer, unassigned) | 4.4 | 3 |
| CCC(C)OC(=O)N1CCCCC1CCO (stereo in doubt) [1-[(R)-sec-butyloxycarbonyl]-2-(S)-(+)-(2-hydroxyethyl)piperidine] | 3.4 | 12 |
| CC[C@H](C)OC(=O)N1CCCC[C@@H]1CCO (stereo in doubt) [1-[(S)-sec-butyloxycarbonyl]-2-(R)-(+)-(2-hydroxyethyl)piperidine] | 4.9 | 0 |
| CC[C@H](C)OC(=O)N1CCCC[C@H]1CCO [1-[(S)-sec-butyloxycarbonyl]-2-(S)-(2-hydroxyethyl)piperidine] | 3.9 | 0 |
